Test results from patent US20050119197A1, “Naadp analogues for modulating t-cell activity” (priority 2000, published 2005).

Legend:
Type in all cases: cell-based, human
Jurkat T cells [1] = test: Ca^2+ signals in single intact Jurkat T-lymphocytes microinjected with compound (ratiometric Fura2 Ca^2+ imaging); details: for Ca^2+ signal after microinjection: 1 mM extracellular Ca^2+
Procedure: Jurkat T-lymphocytes were loaded with Fura2/AM and Ca^2+ was measured as detailed under ‘Experimental Procedures’. Cells were injected as described in Experimental Procedures’ in the presence of 1 mM extacellular Ca^2+. Data are presented as overlays of single tracings of individual cells (left panel). […] As a control vehicle buffer without NAADP^+ was injected (A,B). The time point of microinjection is indicated by arrows.
Data from FIG. 1 are shown as mean values (n=5 to 17) from time point 80 sec (Ca^2+ peak; A) or 400 sec (Ca^2+ plateau; B).
Jurkat T-lymphocytes were loaded with Fura2/AM and ratiometric Ca^2+ imaging and parallel microinjection in the presence of 1 mM extracellular Ca^2+ was carried out as detailed under ‘Experimental Procedures’. Cells were injected with 50 nM NAADP^+ (A) or NADP^+ (B). Shown are the averages from 13 (A) and 5 (B) cells. The time point of microinjection is indicated by arrows.
Jurkat T lymphocytes (subclone JMP) were cultured in RPMI 1640 medium containing the following additions: Glutamax I, HEPES (20 mM, pH 7.4), NCS (7.5%), penicillin (100 U/ml) and streptomycin (50 μg/ml; all obtained from Life Technologies, Eggenstein, Germany). The cells were cultured at 37° C. in a humidified atmosphere in the presence of 5% CO2.
Batches of 10^7 Jurkat T cells were loaded with Fura2/AM as described (Guse et al., 1993). Fura2-loaded cells (10^7 cells/5 ml) were kept at room temperature until use. Glass coverslips were coated first with bovine serum albumin (5 mg/ml), and then with poly-L-lysine (0.1 mg/ml). Small chambers consisting of a rubber O-ring were sealed on the coverslips by silicon grease. Then 90 μl of extracellular buffer (140 mM NaCl, 5 mM KCl, 1 mM MgSO4, 1 mM CaCl2, 20 mM Hepes, 1 mM NaH2PO4, 5.5 mM glucose, pH 7.4) was added, followed by addition of 10 μl cell suspension. The coverslip was mounted on the stage of an inverted microscope (Axiovert 100, Zeiss, Oberkochingen, Germany). Ratiometric Ca^2+-imaging was performed using a PhotoMed/Photon Technology (Wedel, Germany) digital imaging system built around the Axiovert 100 microscope. Illumination at 340 and 380 nm was carried out using a chopper/optical filter system. Images were captured by an intensified CCD camera (type C2400-77; spatial resolution: 525×487 pixel; Hamamatsu, Garching, Germany) and stored as individual 340 and 380 images on harddisk. Sampling rate was usually 5 sec for a pair of images (340 and 380 nm) using 100-fold magnification. Data analysis was performed off-line using PhotoMed/Photon Technology (Wedel, Germany) “Image master” analysis software. Ratio images (340/380) were constructed pixel by pixel, and changes in the ratio over time were measured by applying “regions-of-interest” on individual cells. Finally, ratio values were converted to Ca^2+-concentrations by external calibration.
Parallel Ca^2+ imaging and microin ection experiments require a firm attachment of the Jurkat T cells without preactivation of intracellular Ca^2+-signaling. This was achieved by the above mentioned coating procedure of the glass coverslips, as detailed earlier (Guse et al., 1997). The cells were kept in a small chamber (100 μl volume) in extracellular buffer (140 mM NaCl, 5 mM KCl, 1 mM MgSO4, 1 mM CaCl2, 20 mM Hepes, 1 mM NaH2PO4, 5.5 mM glucose, pH 7.4). Compounds to be microinjected were cleared from particles by either filtration through 0.45 μm filters, by centrifugation in an Eppendorf centrifuge at maximal speed for 10 min, or by both. Femtotips II (Eppendorf-Netheler-Hintz, Hamburg, Germany) were filled with 5 μl of reagent solution and inserted into the semi-automatic Eppendorf microinjection system (Transjector 5246, Micromanipulator 5171, Eppendorf-Netheler-Hintz, Hamburg, Germany). Injection parameters were: injection pressure: 80 hPa, compensatory pressure: 40 hPa, duration of injection: 0.5 sec, velocity of pipette: 700 μm/sec, pipette angle: 45°. Injections were performed into the upper part of the cell.

[2] = test system: NAADP^+-mediated Ca^2+-signaling; test: Co-injection of antagonists with NAADP^+: influence on NAADP^+-mediated Ca^2+-signaling in Jurkat T-lymphocytes
Procedure: (§1) Jurkat T-lymphocytes were loaded with Fura2/AM and ratiometric Ca^2+ imaging and parallel microinjection in the presence of 1 mM extracellular Ca^2+ was carried out as detailed under ‘Experimental Procedures’. […] Shown are (n=number of experiments): A/F, coinjection of NAADP (50 nM) and 8-OCH3-cADPR (100 μM) (n=7); B/G, injection of NAADP^+ (50 nM, n=10); C/H, coinjection of NAADP^+ (10 μM) and cADPR (10 μM) (n=7); D/I, coinjection of NAADP^+ (50 nM) and cADPR (10 μM) (n=5); E/J, injection of cADPR (10 μM, n=5).
(§2) Jurkat T-lymphocytes were loaded with Fura2/AM and ratiometric Ca^2+ imaging and parallel microinjection in the presence of 1 mM extracellular Ca^2+ was carried out as detailed under ‘Experimental Procedures’. […] Shown are: A/F, coinjection of NAADP^+ (50 nM) and […] (40 μM) (n=7); B/G, injection of NAADP^+ (50 nM) (n=10); C/H, coinjection of NAADP^+ (10 μM) and Ins(1,4,5)P3 (4 μM) (n=9); D/I, coinjection of NAADP^+ (50 nM) and Ins(1,4,5)P3 (4 μM) (n=3); E/J injection of Ins(1,4,5)P3 (4 μM; n=8)
Batches of 10^7 Jurkat T cells were loaded with Fura2/AM as described (Guse et al., 1993). Fura2-loaded cells (10^7 cells/5 ml) were kept at room temperature until use. Glass coverslips were coated first with bovine serum albumin (5 mg/ml), and then with poly-L-lysine (0.1 mg/ml). Small chambers consisting of a rubber O-ring were sealed on the coverslips by silicon grease. Then 90 μl of extracellular buffer (140 mM NaCl, 5 mM KCl, 1 mM MgSO4, 1 mM CaCl2, 20 mM Hepes, 1 mM NaH2PO4, 5.5 mM glucose, pH 7.4) was added, followed by addition of 10 μl cell suspension. The coverslip was mounted on the stage of an inverted microscope (Axiovert 100, Zeiss, Oberkochingen, Germany). Ratiometric Ca^2+-imaging was performed using a PhotoMed/Photon Technology (Wedel, Germany) digital imaging system built around the Axiovert 100 microscope. Illumination at 340 and 380 nm was carried out using a chopper/optical filter system. […] Ratio images (340/380) were constructed pixel by pixel, and changes in the ratio over time were measured by applying “regions-of-interest” on individual cells. […]

[3] = test system: OKT3-mediated Ca^2+-signaling (TCR/CD3 complex); test: Effect of microinjected NAADP^+ on OKT3-induced Ca^2+ signaling in single Jurkat T-lymphocytes
Procedure: Jurkat T-lymphocytes were loaded with Fura2/AM and ratiometric Ca^2+ imaging and parallel microinjection in the presence of 1 mM extracellular Ca^2+ was carried out as detailed under ‘Experimental Procedures’. The cells were injected with different concentrations of NAADP^+ and then OKT3(10 μg/ml) was added. Injection of intracellular buffer (A), NAADP^+ (50 nM [B] and 10 μM [C]), and addition of OKT3 is indicated by arrows. Data are presented as a typical tracing from one individual cell, for each condition at least 3 experiments were carried out.
(§3) Batches of 10^7 Jurkat T cells were loaded with Fura2/AM as described (Guse et al., 1993). Fura2-loaded cells (10^7 cells/5 ml) were kept at room temperature until use. Glass coverslips were coated first with bovine serum albumin (5 mg/ml), and then with poly-L-lysine (0.1 mg/ml). Small chambers consisting of a rubber O-ring were sealed on the coverslips by silicon grease. Then 90 μl of extracellular buffer (140 mM NaCl, 5 mM KCl, 1 mM MgSO4, 1 mM CaCl2, 20 mM Hepes, 1 mM NaH2PO4, 5.5 mM glucose, pH 7.4) was added, followed by addition of 10 μl cell suspension. The coverslip was mounted on the stage of an inverted microscope (Axiovert 100, Zeiss, Oberkochingen, Germany). […] Ratio images (340/380) were constructed pixel by pixel, and changes in the ratio over time were measured by applying “regions-of-interest” on individual cells. […]

[4] = test system: Ins(1,4,5)P3-mediated Ca^2+-release; test: Co-injection of NAADP^+ with Ins(1,4,5)P3 in Jurkat T-lymphocytes
Procedure: as §2, §3

[5] = test system: cADPR-mediated Ca^2+-signal; test: Co-injection of NAADP^+ with cADPR in Jurkat T-lymphocytes
Procedure: as §1, §3

Jurkat T cells [6] = test: Ca^2+ signals in single intact Jurkat T-lymphocytes microinjected with compound (ratiometric Fura2 Ca^2+ imaging); details: 50 nM microinjected; nominal Ca^2+-free buffer; data not shown
[7] = Ins(1,4,6)PS3 40 μM co-injected with NAADP^+ 50 nM, vs NAADP^+ alone

nicotinamide-adenine dinucleotide phosphate [NADP^+]
Ca^2+ signal after microinjection (Jurkat T cells [1]; pipette concentration 50 nM): completely without effect

COc1nc2c(=N)n3cnc2n1C1OC(COP(=O)(O)OP(=O)(O)OCC2OC3C(O)C2O)C(O)C1O (stereo not drawn) [8-OCH3-cADPR]
effect on NAADP^+-mediated Ca^2+-signaling ([2]; 8-OCH3-cADPR 100 μM co-injected with NAADP^+ 50 nM): did not significantly affect

OC1C(O)C(OP(O)(O)=S)C(OP(O)(O)=S)C(O)C1OP(O)(O)=S (stereo not drawn) [Ins(1,4,6)PS3]
decay of the initial Ca^2+ peak of NAADP^+-mediated signal [2, 7]: faster decay
effect on initial Ca^2+ peak of NAADP^+-mediated signal [2, 7]: partial reduction

Nc1ncnc2c1ncn2[C@@H]1O[C@H](COP(=O)(O)OP(=O)(O)OCC2OC([n+]3cccc(C(=O)[O-])c3)C(O)C2O)[C@@H](O)[C@H]1OP(=O)(O)O (stereo in doubt) [NAADP^+, nicotinic acid adenine dinucleotide phosphate]
effect on OKT3-mediated Ca^2+-signal ([3]; NAADP^+ 50 nM microinjected prior to OKT3 10 μg/ml): did not significantly change
effect on OKT3-mediated Ca^2+-signaling ([3]; NAADP^+ 10 μM (desensitizing) microinjected before OKT3 10 μg/ml): dramatic inhibition
Ca^2+ signal on co-injection with Ins(1,4,5)P3 ([4]; NAADP^+ 50 nM co-injected with Ins(1,4,5)P3 4 μM): high initial Ca^2+ peak
effect on Ins(1,4,5)P3-mediated Ca^2+-release ([4]; NAADP^+ 10 μM (desensitizing) co-injected with Ins(1,4,5)P3 4 μM): almost complete inhibition
effect on cADPR-mediated Ca^2+ signals ([5]; NAADP^+ 50 nM co-injected with cADPR 10 μM): did not significantly change
effect on cADPR-mediated Ca^2+-signal ([5]; NAADP^+ 10 μM (self-desensitizing) co-injected with cADPR 10 μM): massive decrease
high initial Ca^2+-spike in nominal Ca^2+-free extracellular buffer (Jurkat T cells [6]): massively reduced
longlasting Ca^2+-signal as measured at 400 s (Jurkat T cells [1]; 100 nM, Ca^2+ plateau, FIG. 2B): only minor changes
optimal concentration for the initial Ca^2+-peak (bell shaped dose response curve) (Jurkat T cells [1]; Ca^2+ peak at 80 sec, FIG. 2A): 100 nM
Ca^2+ signal after microinjection (Jurkat T cells [1]; pipette concentration 0.1 nM): without effect in most of the cells
Ca^2+ signal after microinjection (Jurkat T cells [1]; pipette concentration 1 nM): without effect in most of the cells
Ca^2+ signal after microinjection (Jurkat T cells [1]; pipette concentration 10 nM): stimulated repetitive, longlasting Ca^2+ spiking of low amplitude
Ca^2+ signal after microinjection (Jurkat T cells [1]; pipette concentration 10 nM, listed as NAADP+): evokes repetitive and longlasting Ca^2+ oscillations of low amplitude
Ca^2+ signal after microinjection (Jurkat T cells [1]; pipette concentration 50 nM): an initial, rapidly occurring Ca^2+-peak with a high amplitude
Ca^2+ signal after microinjection (Jurkat T cells [1]; pipette concentration 50 nM, listed as NAADP+): a rapid and high initial Ca^2+ peak followed by trains of smaller Ca^2+ oscillations
Ca^2+ signal after microinjection (Jurkat T cells [1]; pipette concentration 100 nM): a rapid and high initial Ca^2+ peak followed by trains of smaller Ca^2+ oscillations
Ca^2+ signal after microinjection (Jurkat T cells [1]; pipette concentration 1 μM): gradually reduce the initial Ca^2+ peak
Ca^2+ signal after microinjection (Jurkat T cells [1]; pipette concentration 10 μM): gradually reduce the initial Ca^2+ peak
Ca^2+ signal after microinjection (Jurkat T cells [1]; pipette concentration 100 μM): no signal was detectable
Ca^2+ signal after microinjection (Jurkat T cells [1]; pipette concentration 100 μM, listed as NAADP+): complete self-inactivation of Ca^2+-signals
